System: human cardiomyocytes (Celprogen 36044-15at)
Assay: LC-ESI-TOF-MS metabolomics of extracellular media of drug-treated human cardiomyocytes (Tables 2A-2C)
Assay type: cell-based
Details: 15uM tamoxifen
Procedure: Data for statistical analysis were extracted from chromatograms using the Agilent Mass Hunter software (Product No. G3297AA, Agilent Technologies, Inc., Santa Clara, Calif.); it will be understood that alternative statistical analysis methods can be used. Masses were binned together if they were within 10 ppm and eluted within a 2 minutes retention time window. A binned mass was considered to be the same molecule across different LC-ESI-TOF-MS analyses (referred to herein as an “exact mass,” which will be understood to be ±10 ppm). Binning of the data is required for statistical analysis and comparison of masses across the entire experiment. If multiple peaks with the same mass at the same retention time within a single sample were detected by Mass Hunter, they were averaged to assist data analysis. Masses lacking a natural isotopic distribution or with an absolute height of less than 1000 were removed from the data prior to analysis. It would be understood that the results from this assay provide relative values that are assessed according to annotated values within 10 ppm to provide an identity for the molecular weight detected. Thus, a mass shift within 10 ppm is considered consistent with determining the identity of a specific cellular metabolite previously annotated due to differences in ionization source and instrumentation, e.g. between different experiments or using different instruments.
As used herein, a mass was considered to be the same across LC/ESI-TOF-MS runs using a simple algorithm that first sorts the data by mass and retention time. […] If a series of measurements fit this definition it was considered to be from the same compound. If either the mass or the retention time varied by more than the limits listed above it was considered to be a different compound and given a new unique designation.
The data from the most reproducible mass features was log base 2 transformed and median centered prior to statistical analysis. […] To test the null hypothesis a one way permutation based t-test assuming a normal approximation of the conditional distribution was used and implement using the Conditional Inference Procedures in a Permutation Test Framework (Coin) library, a contributed package of programming code. Statistics tests were performed without replacement of missing values decrease the degrees of freedom rather than imputing missing values. […] False discovery rates (FDR) were controlled using the Q value estimator (Storey et al., 2003, Proc Natl Acad. Sci., 100:9440-5) and implemented using the qvalue library in R (Dabney et al., 2003, qvalue: Q-value estimation for false discovery rate control. R package version 1.10.0., www.CRAN.R-project.org).
The extracellular media from treated and untreated cells was processed as described in Cezar et al., (2007, Stem Cells Development 16: 869-882, this publication is incorporated by reference), for extraction of low molecular weight molecules (<3 kD) for metabolomics analysis. Extracellular low molecular weight molecule preparations were separated by liquid chromatography followed by electrospray ionization time of flight (LC-ESI-TOF-MS) mass spectrometry for ionization and detection of the full spectra of low molecular weight molecules present in each sample. More specifically, the samples were separated using the ESI_Luna_HILIC—95_t—06OACN—16 min method (HILIC chromatography). Statistical differences were inferred by subsequent bioinformatics and in silico mapping of deisotoped ESI-TOF-MS mass features as described below (also provided in Cezar et al. (2007, id.)).
Briefly, ionization (100 m/z-1500 m/z) was acquired on an Agilent 6520 Accurate-Mass Q-TOF in extended dynamic range and positive mode. Mass features were generated using two independent methods. First MassHunter Qualitative Analysis was used to generate mass features using the Molecular Feature Extraction algorithm (MFE).

CC/C(=C(\c1ccccc1)c1ccc(OCCN(C)C)cc1)c1ccccc1 [Tamoxifen]
tamfold (feature cpdID 36, neutral mass 101.1204, RT 0.720145, Triethylamine or Hexylamine): 1.889 fold
tamfold (feature cpdID 8902, neutral mass 276.1256, RT 8.733378, no hit): 2.064 fold
tamfold (feature cpdID 11232, neutral mass 311.1029, RT 7.400847, p-Glucosyloxymandelonitrile or (S)-4-Hydroxymandelonitrile beta-D-glucoside): 1.708 fold
tamfold (feature cpdID 14190, neutral mass 356.253, RT 1.103957, HMDB04239, 13,14-dihydro PGE1 or Prostaglandin F1alpha): 11.4 fold
tamfold (feature cpdID 15112, neutral mass 372.0557, RT […], no hit): −1.266 fold
tamfold (feature cpdID 16504, neutral mass 393.0913, RT 7.25538, no hit): 1.21 fold
tamfold (feature cpdID 16939, neutral mass 400.2796, RT 1.108613, 7-Ketocholesterol): 10.16 fold
tamfold (feature cpdID 17096, neutral mass 403.1776, RT 6.2306, no hit): −1.832 fold
tamfold (feature cpdID 19500, neutral mass 444.3034, RT 1.106333, […]-Dihydroxyvitamin D3-26,23-lactone): 15.8 fold
tamfold (feature cpdID 19704, neutral mass 448.1344, RT 7.184483, no hit): 1.975 fold
tamfold (feature cpdID 21926, neutral mass 488.3323, RT 1.106573, no hit): 7.564 fold
tamfold (feature cpdID 23163, neutral mass 516.1241, RT 7.217222, Formononetin 7-O-glucoside-6″-O-malonate, Isochlorogenic acid b or 13-Dicaffeoylquinic acid): 1.75 fold
tamfold (feature cpdID 24142, neutral mass 538.2779, RT 0.783395, no hit): 2.706 fold
tamfold (feature cpdID 25561, neutral mass 575.2051, RT 7.271724, no hit): −1.008 fold
tamfold (feature cpdID 25601, neutral mass 576.3861, RT 1.10751, 3-Hexaprenyl-4-hydroxy-5-methoxybenzoic acid): 5.478 fold
tamfold (feature cpdID 27363, neutral mass 620.4117, RT 1.108317, no hit): 3.46 fold
tamfold (feature cpdID 28720, neutral mass 661.1924, RT 6.495524, no hit): 1.185 fold
tamfold (feature cpdID 29101, neutral mass 672.1828, RT 6.528464, no hit): 2.364 fold
tamfold (feature cpdID 29227, neutral mass 676.1781, RT 1.298314, no hit): −1.514 fold
tamfold (feature cpdID 31637, neutral mass 744.1091, RT 1.26415, no hit): 1.02 fold
tamfold (feature cpdID 33162, neutral mass 791.2316, RT 6.496594, no hit): 1.968 fold
tamfold (feature cpdID 37905, neutral mass 932.2608, RT 6.542554, no hit): 1.8 fold
tamfold (feature cpdID 37938, neutral mass 933.3726, RT 8.330596, no hit): 1.939 fold
tamfold (feature cpdID 42137, neutral mass 1122.172, RT 1.256606, no hit): −1.752 fold
tamfold (feature cpdID 45209, neutral mass 1300.402, RT 6.501484, no hit): 1.731 fold
tamfold (feature cpdID 45486, neutral mass 1322.385, RT 6.518707, no hit): 1.765 fold
